From patent US9796700B2 (Celgene CAR LLC, priority 2013, dated 2017)
Read-outs that look alike come from different tables or passages of the source.

What was measured:
[1] = biological target: T1, Erk1 (Homo sapiens (Human), UniProt P27361); assay: Measurement of Erk occupancy with biotinylated covalent probe I-299; assay type: cell-based; conditions: HT-29 cells
Protocol: Measurement of Erk Occupancy with Biotinylated Covalent Probe
This experiment measured occupancy of the ERK1 target by compounds according to the invention. This experiment was conducted using the Mesoscale Discovery test kit (Cat. #N45107B). One day before the assay, cells were split and added at 50,000 cells per well to a flat-bottom 96 well plate in 200 μl of growth medium. The next day, the medium was discarded, 100 μl medium containing test compound was added, and the plate was incubated at 37° C. for 120 minutes. The plate was rinsed once with PBS, and 50 μl lysis buffer with test compound was added. The plate was incubated at 4° C. for 30 min, and 30 μl of lysate was transferred to a plate to capture total and phosphor-Erk. Biotinylated probe I-299 was diluted in lysis buffer and added to each well to a final concentration of 0.2 μM. The plate was incubated for 2 hr under constant shaking at room temperature. The plate was washed 3 times with MSD wash buffer. To detect the biotinylated probe bonding, tagged streptavidin was added (MSD, Cat#R32AD-1) at 1 μg/ml, 25 μl/well, followed by a 60 min incubation under shaking. The plate was washed 3 times, 150 μl MSD Read Buffer (Cat#R61TX) was added and the plate was read in a plate reader manufactured by MSD. Percent occupancy by test compound at Erk was calculated by comparing the chemiluminescence readings from treated cells as compared to the chemiluminescence readings in untreated controls (which are defined as 100% probe bonding or 0% occupancy). The amount of covalent probe signal divided by the amount of ERK signal for samples with no test compound treatment represents the maximum probe signal (MPS). In samples treated with test compound prior to covalent probe, the ratio of probe signal to ERK signal (the test probe signal, TPS) was reduced by the degree of target occupancy by the test compound which blocks covalent probe binding. The difference between the MPS and the TPS, divided by the MPS gave the target occupancy by the test compound. This ratio was then expressed as a percent occupancy. Results from this assay are provided in Table A below under the column “Occupancy EC50 (nM) HT-29.”
Target sequence in this assay (P27361 2-379 limits assumed): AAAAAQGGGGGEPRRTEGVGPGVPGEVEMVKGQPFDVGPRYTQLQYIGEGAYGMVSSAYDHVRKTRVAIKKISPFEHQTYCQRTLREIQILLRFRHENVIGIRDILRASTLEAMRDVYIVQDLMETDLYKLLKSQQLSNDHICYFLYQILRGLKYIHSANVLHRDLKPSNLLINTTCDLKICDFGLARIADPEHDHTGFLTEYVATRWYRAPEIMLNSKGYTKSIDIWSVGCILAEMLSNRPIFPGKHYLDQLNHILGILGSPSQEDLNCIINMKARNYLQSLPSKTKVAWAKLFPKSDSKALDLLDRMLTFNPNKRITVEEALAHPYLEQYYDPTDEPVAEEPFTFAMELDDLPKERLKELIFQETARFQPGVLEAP

[2] = biological target: T1, Erk1; assay: Protein Mass Modification Assay (intact protein MALDI); assay type: binding
In short: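 Percent covalent modification comes from the intact-protein MALDI centroid mass shift, treated versus control, divided by compound MW. Before analysis, human Erk1 was exposed to compound at 10-fold excess over protein for 60 min at room temperature.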
Target sequence in this assay (P27361 whole entry, looked up): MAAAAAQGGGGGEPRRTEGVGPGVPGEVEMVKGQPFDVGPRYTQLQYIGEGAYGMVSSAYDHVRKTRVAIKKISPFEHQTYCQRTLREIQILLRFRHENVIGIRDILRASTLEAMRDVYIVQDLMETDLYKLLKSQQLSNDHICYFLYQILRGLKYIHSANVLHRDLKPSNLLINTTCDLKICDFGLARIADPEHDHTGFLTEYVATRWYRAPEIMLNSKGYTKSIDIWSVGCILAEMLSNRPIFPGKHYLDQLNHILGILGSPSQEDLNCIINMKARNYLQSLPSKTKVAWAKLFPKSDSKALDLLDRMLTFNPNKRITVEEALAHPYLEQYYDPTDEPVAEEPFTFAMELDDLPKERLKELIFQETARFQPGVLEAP

[3] = biological target: MEK1 activated ERK1 (Homo sapiens (Human), UniProt P27361); assay: Omnia continuous-read kinase assay for potency against MEK1 activated ERK1; assay type: biochemical; conditions: MEK1 activated ERK1, WT, ATP at KM
Sequence of MEK1 activated ERK1 (P27361 whole entry): as the sequence (P27361 whole entry, looked up) above
In short: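 Apparent IC50 came from initial reaction slopes (RFU vs time) plotted against log inhibitor with a variable-slope fit. Reactions were started with ERK1 (4 nM final) added to 50 μM ATP, roughly at its appKM, and 10 μM Sox-conjugated ST17 peptide in 20 mM Tris pH 7.5, 5 mM MgCl2. Fluorescence was monitored every 71 seconds.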

[4] = system: HT-29 cells; assay: Measurement of inhibition of cancer cell proliferation (CellTiterGlo); assay type: cell-based; conditions: Homo sapiens, 72 hours
Protocol: Measurement of Inhibition of Cancer Cell Proliferation
HT-29 cells were split and 3000 cells in 100 μl of growth medium were added per well of a flat-bottom 96-well plate. A two-fold test compound solution in serum-free RPM1640 was made, starting at 5,000 nM. Then, 3-fold serial dilutions were made across the plate from well 1 to well 11. Well 12, the last well in a row on the plate, was left as untreated control. 100 μl compound solutions were then transferred to the wells, so the total volume of media was 200 μl per well. Plates were returned to a 37° C. incubator, and the cells were cultured for 72 hours. To measure cell proliferation after 72 hours, media was discarded from the plates, 50 μl/well of fresh medium was added, and 50 μl CellTiterGlo solution was added (Promega Cat#G7573). The plate was covered with a dark lid and incubated for 10 min. A sealing tape was applied to the bottom of the plate, and the plate was read in a luminescence plate reader. […] A 2-fold serial dilution was used to generate 8 cell densities from 50,000-390 cells per well in 50 μl media. 50 μl CellTiterGlo was added per well, and the plate was read in a luminescence plate reader after 10 min. The reading was plotted vs. cell number to generate a standard curve and the equation of the curve fit. The compound-treated sample luminescence readings were converted to cell numbers using the equation. The percent of inhibition, using untreated control as 100% growth, was then calculated. GI50 was then calculated by GraphPad Prism.

[5] = system: ERK1 phosphorylation of its substrate RSK in HT29 cells; assay: pRSK MSD Assay in HT29 cells; assay type: cell-based; conditions: Homo sapiens
Protocol: The protocol below describes an assay to measure the kinase activity of ERK1 to phosphorylate its substrate, RSK, in the presence of a test compound. This experiment was conducted using a Mesoscale Discovery plate. The day before the assay, HT29 cells were split and plated at 50,000 cells/well in complete growth media. After allowing cells to adhere, the media was removed and replaced with media containing 0.1% FBS and incubated overnight. Blank MDS plates were coated with 25 μl/well RSK capture antibody and incubated at 4° C. overnight. The next day, the media was removed and replaced with 100 μl of media containing a test compound and incubated for 120 minutes at 37° C. The media was removed and replaced with 55 μl of well lysis buffer with protease and phosphatase inhibitors provided in the kit, followed by incubation at 4° C. for 30 minutes. 50 μl of lysate was transferred to a blocked MSD plate, followed by incubation at room temperature for 2 hours under constant shaking. The plate was washed 3 times with MSD wash buffer (cat#R617TX), and 25 μl/well phospho-RSK (pRSK) detection antibody was added with an appropriate Sulfo-tagged anti-species detection antibody diluted in 1% BSA in MSD wash buffer. This mixture was incubated for 1 hour at room temperature under constant shaking. The plate was washed 3 times, and 150 μl 1×MSD read buffer was added, followed by signal detection in an MSD plate reader.

[6] = HT-29, read-out: ERK1 PRSK MSD HT29 EC50 (nM)
[7] = HT-29, HT29 cells, read-out: ERK1 PRSK MSD HT29 EC50

Row | EC50 [1] | ERK1 Mass Mod (%) [2] | IC50 [3] | GI50 [4] | EC50 [5, 7] | Structure (SMILES) | EC50 [5, 6]
1 | < 100 nM | E (provided a mass modification of ≧70%) |  |  |  | C=CC(=O)Nc1ccccc1Nc1nc(N[C@@H]2CCC[C@H](C(N)=O)C2)ncc1C(F)(F)F (racemic) [Compound I-2, Rac-cis-3-((4-((2-acrylamidophenyl)amino)-5-(trifluoromethyl)pyrimidin-2-yl)amino)cyclohexanecarboxamide] | 
2 | < 100 nM | E (provided a mass modification of ≧70%) | < 100 nM |  |  | C=CC(=O)Nc1ccccc1Nc1nc(N[C@@H]2CCC[C@H](C(N)=O)C2)ncc1Cl (racemic) [Compound I-102, Rac-cis-3-(4-(2-acrylamidophenylamino)-5-chloropyrimidin-2-ylamino)cyclohexane carboxamide] | 
3 | < 100 nM | E (provided a mass modification of ≧70%) | < 100 nM |  |  | C=CC(=O)Nc1ccccc1Nc1nc(Nc2cc(C(N)=O)c(F)cc2C)ncc1C(F)(F)F [Compound I-76, 5-((4-((2-Acrylamidophenyl)amino)-5-(trifluoromethyl)pyrimidin-2-yl)amino)-2-fluoro-4-methylbenzamide] | 
4 |  | E (provided a mass modification of ≧70%) |  | 501 to 999 nM | 501 to 999 nM | C=CC(=O)N(C)c1ccccc1Nc1nc(N[C@H]2CC[C@H](O)CC2)ncc1Cl [Compound I-104, N-(2-((5-chloro-2-(trans-(4-hydroxycyclohexyl)amino)pyrimidin-4-yl)amino)phenyl)-N-methylacrylamide] | 
5 |  | E (provided a mass modification of ≧70%) |  | 501 to 999 nM |  | C=CC(=O)Nc1cc(OC)ccc1Nc1nc(Nc2ccc(N3CCN(C(C)=O)CC3)cc2OC)ncc1Cl [Compound I-152, N-(2-((2-((4-(4-acetylpiperazin-1-yl)-2-methoxyphenyl)amino)-5-chloropyrimidin-4-yl)amino)-5-methoxyphenyl)acrylamide] | 
6 |  | E (provided a mass modification of ≧70%) |  | 101 to 500 nM |  | C=CC(=O)Nc1ccccc1Nc1nc(Nc2cc(C(=O)NOCCO)ccc2C)ncc1Cl [Compound I-198, 3-((4-((2-acrylamidophenyl)amino)-5-chloropyrimidin-2-yl)amino)-N-(2-hydroxyethoxy)-4-methylbenzamide] | 
7 |  | E (provided a mass modification of ≧70%) |  | < 100 nM | < 100 nM | C=CC(=O)Nc1ccccc1Nc1nc(Nc2cc(N[C@H]3CC[C@@H](O)CC3)nc(OC)c2)ncc1C(F)(F)F [Compound I-292] | 
8 |  | E (provided a mass modification of ≧70%) |  | < 100 nM | < 100 nM | C=CC(=O)Nc1cc(C)ccc1Nc1nc(Nc2cc(N[C@H]3CC[C@@H](O)CC3)nc(OC)c2)ncc1C(F)(F)F [Compound I-326, N-(2-((2-((2-((cis-4-hydroxycyclohexyl)amino)-6-methoxypyridin-4-yl)amino)-5-(trifluoromethyl)pyrimidin-4-yl)amino)-5-methylphenyl)acrylamide] | 
9 |  | E (provided a mass modification of ≧70%) |  | 101 to 500 nM | < 100 nM | C=CC(=O)Nc1cc(C)ccc1Nc1nc(Nc2nc(OC)ncc2C(F)(F)F)ncc1C(F)(F)F [Compound I-355, N-(2-((2-((2-methoxy-5-(trifluoromethyl)pyrimidin-4-yl)amino)-5-(trifluoromethyl)pyrimidin-4-yl)amino)-5-methylphenyl)acrylamide] | 
10 |  | E (provided a mass modification of ≧70%) |  | 101 to 500 nM |  | C=CC(=O)Nc1cc(C)ccc1Nc1nc(Nc2ncc(F)c(OC)n2)ncc1C(F)(F)F [Compound I-356, N-(2-((2-((5-fluoro-4-methoxypyrimidin-2-yl)amino)-5-(trifluoromethyl)pyrimidin-4-yl)amino)-5-methylphenyl)acrylamide] | 

Row | Structure (SMILES) | EC50 [1] | ERK1 Mass Mod (%) [2] | IC50 [3] | GI50 [4] | EC50 [5, 7] | EC50 [5, 6]
11 | C=CC(=O)Nc1cc(F)ccc1Nc1nc(N[C@H]2CC[C@@H](F)CC2)ncc1C(F)(F)F [Compound I-8, N-(5-fluoro-2-((2-((cis-4-fluorocyclohexyl)amino)-5-(trifluoromethyl)pyrimidin-4-yl)amino)phenyl)acrylamide] |  | E (key: E: provided a mass modification of ≧70%; F: provided a mass modification of 31-69%; G: proived a mass modification ≦30%) |  | 501 to 999 nM |  | < 100 nM
12 | C=CC(=O)Nc1cc(C)ccc1Nc1nc(N[C@H]2CCCN(C(=O)CF)C2)ncc1C(F)(F)F [Compound I-43, (S)—N-(2-((2-((1-(2-Fluoroacetyl)piperidin-3-yl)amino)-5-(trifluoromethyl)pyrimidin-4-yl)amino)-5-methylphenyl)acrylamide] |  | E (provided a mass modification of ≧70%) | < 100 nM | < 100 nM | 101 to 500 nM | 
13 | C=CC(=O)Nc1ccccc1Nc1nc(N[C@H]2CC[C@H](OC)CC2)ncc1Cl [Compound I-100] |  | F (provided a mass modification of 31-69%) |  | > 1000 nM | 501 to 999 nM | 
14 | C=CC(=O)Nc1ccccc1Nc1nc(Nc2ccc(N3CCN(C(C)=O)CC3)cc2OC)ncc1Cl [Compound I-149, N-(2-((2-((4-(4-acetylpiperazin-1-yl)-2-methoxyphenyl)amino)-5-chloropyrimidin-4-yl)amino)phenyl)acrylamide] |  | E (key: E: provided a mass modification of ≧70%; F: provided a mass modification of 31-69%; G: proived a mass modification ≦30%) |  | 101 to 500 nM |  | 
15 | C=CC(=O)Nc1cc(C)ccc1Nc1nc(Nc2cc(NC3CCC(C)(O)CC3)nc(OC)c2)ncc1C(F)(F)F (stereo not drawn) [Compound I-327, N-(2-((2-((2-((trans-4-hydroxy-4-methylcyclohexyl)amino)-6-methoxypyridin-4-yl)amino)-5-(trifluoromethyl)pyrimidin-4-yl)amino)-5-methylphenyl)acrylamide] |  | E (key: E: provided a mass modification of ≧70%; F: provided a mass modification of 31-69%; G: proived a mass modification ≦30%) |  | < 100 nM |  | < 100 nM
